Results published in US10322135B2, “Pharmaceutical composition comprising indole compound” (LG CHEM, LTD., priority 2009, dated 2019).

Assays:
H9C2 cells [1] = assay: Cell protection effect against oxidative stress induced by tBOOH (SRB staining); assay type: cell-based; conditions: Rattus norvegicus, 400 μM tBOOH 2 hrs, concentration protecting 50% of cells from necrosis
Protocol: It is known that tertiary-butylhydroperoxide (tBOOH) induces cell necrosis by causing oxidative stress in various cells. […] H9C2 cells were dispensed into each well of a 96-well plate (1.5×10 ^4 cells/100 μl/well). The next day, the cells were pretreated with each compound and then treated with tBOOH (final concentration: 400 μM) for 2 hrs. 50 μl of formaldehyde was added to each well to fix the cells. Cells were fixed for 30 minutes and washed with distilled water three times. Then, the plate was completely dried in a 50° C. dry oven and SRB solution was added thereto to stain remaining protein. The plate was washed with 1% acetic acid and dried. […] Herein, the term “IC50” refers to the concentration of compound which protects 50% of cells from necrosis induced by tBOOH treatment.

H9C2 cells [2] = assay: Anti-oxidant effect by using dihydrorhodamine 123 in tBOOH-treated H9C2 cells; assay type: cell-based; conditions: 1 hr pretreatment, 400 μM tBOOH 2 hrs, 25% inhibition of DHR123 fluorescence
Protocol: Dihydrorhodamine 123 itself is nonfluorescent but is converted to fluorescent rhodamine 123 when it is oxidized by ROS (reactive oxygen species) or RNS (reactive nitrogen species). […] H9C2 cells were dispensed into each well of a 96-well plate (1.5×10^4 cells/100 μl/well). The next day, the cells were pretreated with each compound, which was serially diluted 3-fold from the highest concentration, for 1 hr, and then treated with 10 μl of DHR123 12.5 μM stock solution (final concentration: 1.25 μM) in 37° C. incubator for 30 minutes. The cells were then immediately treated with 400 μM tBOOH and incubated for 2 hrs. Then, fluorescence, which was excited at 480 nm and emitted at 538 nm, was measured with a spectraMAX Gemini microplate reader. […] PBS. Then 100 μl of PBS was added to each well of the 96-well plate and fluorescence of each cell was measured by immunofluorescence microscopy (fluorescence microscope: Olympus) (Because of DHR123 in cells, fluorescence is emitted in proportion to oxidation). In addition, inhibition of the generation of superoxide was measured with MitoSOX red probe (final concentration: 5 μM) as the same method.

[3] = Direct anti-oxidant effect on H2O2 (DHR123 probe, cell-free); assay type: biochemical; conditions: DHR123 1.25 μM, 2 hrs
Protocol: (§1) 10 μl of DHR123 probe (final concentration: 1.25 μM) was added to 10 μl of each compound which was diluted with 100 μl of DMEM complete media. H2O2 and tBOOH were added as the concentration shown in the following Table 5 and after 2 hrs, fluorescence at wavelengths (480 nm (ex)/538 nm (em)) was measured with spectraMax gemini. Herein, the term “IC25” refers to the concentration of compound which causes 25% decrease of fluorescence assuming the amount emitted by oxidation of DHR123 caused by H2O2 or tBOOH was 100%.

[4] = Direct anti-oxidant effect on tBOOH (DHR123 probe, cell-free); assay type: biochemical; conditions: DHR123 1.25 μM, 2 hrs
Protocol: as §1

[5] = Anti-oxidant effect by using DPPH; assay type: biochemical; conditions: read-out: DPPH anti-oxidant effect (IC50); concentration decreasing absorbance at 517 nm to 50%; 30 min, room temperature
Protocol: DPPH (1,1-diphenyl-2-picrylhydrazyl) is a stable free radical and has a purple color. […] Herein, the term “IC50” refers to the concentration of a compound which decreases absorbance at 517 nm to 50% of the original value.
180 μl of DPPH solution (200 μM in DMSO) was dispensed into each well of a 96-well plate, and 20 μl of compounds, which was serially diluted two-fold from 2,000 μM, was added thereto. They were then well mixed and kept at room temperature for 30 minutes. After 30 minutes, O.D. value at 517 nm was measured with a spectraMAX ELISA reader.

[6] = Removal capacity of ONOO− (peroxynitrite) by using dihydrorhodamine 123; assay type: biochemical; conditions: 50% inhibition of DHR123 oxidation by 1 μM ONOO−
Protocol: ONOO^− (peroxynitrite), which is known as a kind of RNS, plays a very important role in oxidative stress. Thus, it is very important to evaluate the removal capacity of ONOO^− of necrosis inhibitors. It is well known that DHR123 probe is oxidized by ONOO^−. Thus, by using such a property, the capacity of each compound was measured.
10 μl of each compound, which was serially diluted 3-fold from 50 μM, was dispensed into each well of a 96-well plate, and then 170 μl of assay mixture (10 μM DHR123, 1×PBS, 100 μM DPTA without ONOO^−) was added to each well. Finally, 20 μl of ONOO^− solution (final concentration: 1 μM) was added to initiate a reaction. Herein, the term “IC50” refers to the concentration of compounds which causes 50% inhibition of oxidation of DHR123 by ONOO^−.

Row | Compound | IC50 (H9C2 cells [1]) | IC50 [5] | also measured
1 | O=S1(=O)CCN(Cc2cc(NC3CCOCC3)c3[nH]c(-c4ccccc4)cc3c2)CC1 [Compound 9, (tetrahydropyran-4-yl)-[2-phenyl-5-(1,1-dioxo-thiomorpholin-4-yl)methyl-1H-indol-7-yl]-amine] | < 0.2 µM |  | IC25 (μM), anti-oxidant effect by using DHR 123 (H9C2 cells [2]): 0.10 µM
2 | O=C(O)C[C@H]1CSC(c2cc3cccc(NC4CCCC4)c3[nH]2)=N1 [Compound 4, [(S)-2-(7-cyclopentylamino-1H-indol-2-yl)-4,5-dihydro-thiazol-4-yl]-acetic acid] |  | 15 µM | IC25(μM) H2O2 (0.3 mM) [3]: 2.3 µM; IC25(μM) H2O2 (0.6 mM) [3]: 3.6 µM; IC25(μM) tBOOH (0.2 mM) [4]: 3 µM; IC25(μM) tBOOH (0.4 mM) [4]: 5.8 µM
3 | Cc1cc(NC2CCCC2)c2[nH]c(C3=N[C@@H](CC(=O)O)CO3)cc2c1 [Compound 3, [(S)-2-(7-cyclopentylamino-5-methyl-1H-indol-2-yl)-4,5-dihydro-oxazol-4-yl]-acetic acid] |  | 17.5 µM | IC25(μM) H2O2 (0.3 mM) [3]: 2.2 µM; IC25(μM) H2O2 (0.6 mM) [3]: 2.15 µM; IC25(μM) tBOOH (0.2 mM) [4]: 2 µM; IC25(μM) tBOOH (0.4 mM) [4]: 2.4 µM
4 | O=S1(=O)CCN(Cc2cc(NCC3CCOCC3)c3[nH]c(-c4ccccc4)cc3c2)CC1 [Compound 10, [5-(1,1-dioxo-thiomorpholin-4-yl)methyl-2-phenyl-1H-indol-7-yl]-(tetrahydropyran-4-yl)methyl-amine] |  | 22 µM | 
5 | O=C(C1CCCOC1)N1CCC(Nc2cc(CN3CCS(=O)(=O)CC3)cc3cc(-c4ccccc4)[nH]c23)CC1 (centres unmarked) [Compound 12, {4-[5-(1,1-dioxo-thiomorpholin-4-yl)methyl-2-phenyl-1H-indol-7-ylamino]-piperidin-1-yl}-(tetrahydropyran-3-yl)methanone] |  | 19 µM | IC25(μM) H2O2 (0.3 mM) [3]: 1.65 µM; IC25(μM) H2O2 (0.6 mM) [3]: 2 µM; IC25(μM) tBOOH (0.2 mM) [4]: 1.95 µM; IC25(μM) tBOOH (0.4 mM) [4]: 3 µM; IC50 [6]: 0.21 µM; IC25 (μM), anti-oxidant effect by using DHR 123 (H9C2 cells [2]): 0.24 µM
6 | c1ccc(-c2nc3cccc(NC4CCCC4)c3[nH]2)cc1 [Example 1, cyclopentyl-(2-phenyl-3H -benzimidazol-4-yl)-amine] | 0.6 µM |  | 
7 | CS(=O)(=O)N1CCC(Nc2cc(CN3CCS(=O)(=O)CC3)cc3cc(-c4ccccc4)[nH]c23)CC1 [Compound 13, [5-(1,1-dioxo-thiomorpholin-4-yl)methyl-2-phenyl-1H-indol-7-yl]-(1-methylsulfonyl-piperidin-4-yl)-amine] | < 0.2 µM | 17 µM | IC50 [6]: 0.9 µM; IC25 (μM), anti-oxidant effect by using DHR 123 (H9C2 cells [2]): <0.1 µM
8 | O=C1CN(CC[C@H]2CSC(c3cc4cc(Oc5ccccc5)cc(NC5CCCC5)c4[nH]3)=N2)CCN1 [Compound 6, 4-{2-[(S)-2-(7-cyclopentylamino-5-phenoxy-1H-indol-2-yl)-4,5-dihydro-thiazol-4-yl]-ethyl}-piperazin-2-one] | 0.13 µM | 23 µM | 
9 | Cc1cc(NC2CCCC2)c2[nH]c(C3=N[C@@H](CC(=O)O)CS3)cc2c1 [Compound 1, [(S)-2-(7-cyclopentylamino-5-methyl-1H-indol-2-yl)-4,5-dihydro-thiazol-4-yl]-acetic acid] |  | 24 µM | 
10 | O=C(O)C[C@H]1CSC(c2cc3cccc(NCC4CCOCC4)c3[nH]2)=N1 [Compound 8, ((S)-2-{7-[(tetrahydropyran-4-ylmethyl)-amino]-1H-indol-2-yl}-4,5-dihydro-thiazol-4-yl)-acetic acid] |  | 20.5 µM | 
11 | Cc1nnc2n1CCN(CC[C@]1(c3cc4cc(Oc5ccccc5)cc(NC5CCCC5)c4[nH]3)CSC=N1)C2 [Compound 7, cyclopentyl-(2-{(S)-4-[2-(3-methyl-5,6-dihydro-8H-[1,2,4]triazolo[4,3-a]pyrazin-7-yl)-ethyl]-4,5-dihydro-thiazol-4-yl}-5-phenoxy-1H-indol-7-yl)-amine] |  | 25 µM | 
12 | c1ccc(-c2nc3cccc(NC4CCOCC4)c3[nH]2)cc1 [Example 2, (2-phenyl-3H-benzimidazol-4-yl)-(tetrahydro-pyran-4-yl)-amine] | 2 µM |  | 
13 | O=C(O)C[C@H]1CSC(c2cc3cc(Oc4ccccc4)cc(NC4CCCC4)c3[nH]2)=N1 [Compound 5, [(S)-2-(7-cyclopentylamino-5-phenoxy-1H-indol-2-yl)-4,5-dihydro-thiazol-4-yl]-acetic acid] |  | 20 µM | IC50 [6]: 3.4 µM
14 | O=S1(=O)CCN(Cc2cc(N(CC3CCOCC3)CC3CCOCC3)c3[nH]c(-c4ccccc4)cc3c2)CC1 [Compound 11, [5-(1,1-dioxo-thiomorpholin-4-yl)methyl-2-phenyl-1H-indol-7-yl]-bis-[(tetrahydropyran-4-yl)methyl]-amine] |  | 12.5 µM | 
15 | Cc1cc(NCC2CCOCC2)c2[nH]c(C3=N[C@@H](CC(=O)O)CS3)cc2c1 [Compound 14, ((S)-2-{5-methyl-7-[(tetrahydropyran-4-ylmethyl)-amino]-1H-indol-2-yl}-4,5-dihydro-thiazol-4-yl)-acetic acid] | 0.72 µM | 28 µM | 
16 | Cc1cc(NC2CCOCC2)c2[nH]c(C3=N[C@@H](CC(=O)O)CS3)cc2c1 [Compound 2, {(S)-2-[5-methyl-7-(tetrahydropyran-4-ylamino)-1H-indol-2-yl]-4,5-dihydro-thiazol-4-yl}-acetic acid] | 6.5 µM | 24 µM | 
